The source of these data is PubChem BioAssay AID2060335 (Molecular Pharmacology Branch, DTP, NCI, 2025).

Where “and” joins values, the source holds several entries; their conditions need not be identical. Equal entries are not always repeated. Some results are limits rather than exact numbers.

The test deals with DU-145 multicell spheroids with HUVEC/MSC, viability. In words: Anticancer human tumor DU-145 cell line growth inhibition [IpAb].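 On all read-outs here: spheroids exposed to agents for seven days before measurement.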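 On viability, T/C: percent of DMSO vehicle control viability so 100% = untreated level.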 The conditions noted are these: for viability, T/C: stronger effect = lower value. An excerpt:
Combinatorial screen of targeted agents with ipatasertib and abemaciclib in multi-cell type tumor spheroids
A high-throughput screen of multi-cell type tumor spheroids was designed to identify active combinations of targeted small molecules and ipatasertib or abemaciclib. Complex spheroids include a stromal component modeled by human endothelial cells (HUVEC) and fibroblasts modeled by human mesenchymal stem cells (MSCs). The concentration ranges selected for each drug and investigational agent were based upon clinically achievable concentrations if the clinical Cmax of the agent was known.
Compounds. The drugs and investigational agents: ipatasertib (NSC767898), abemaciclib(NSC768073), selumetinib (NSC741078), trametinib (758246), adavosertib (NSC754352), everolimus (NSC733504), sapanisertib (NSC764658), vemurafenib (NSC761431), venetoclax (NSC766270), copanlisib (NSC809693), apelisib (NSC765974), palbociblib (NSC758247), vemurafenib (NSC761431), dabrafenib (NSC764134), ravoxertinib (NSC781343), BMS-387032 (NSC767048), sotorasib (NSC818433), talazoparib (NSC767125) and afursertib (NSC778305), were obtained from the National Cancer Institute (NCI) Developmental Therapeutics Program Chemical Repository. The FDA-approved anticancer drug set is available from the NCI Developmental Therapeutics Program. […] The stock solutions were prepared in dimethyl sulfoxide (DMSO, Sigma-Aldrich, St. Louis, MO, cat. D2650) at 800-fold the tested concentration and stored at -70 degrees C prior to their use. All drugs and investigational agents were tested over a range starting from a high concentration at or near the clinical Cmax and decreasing in half-log increments. If the clinical Cmax for an agent had not been determined, the highest concentration tested was 10 microM.
NCI60 Cell Culture. NCI60 cell lines were obtained from the NCI Developmental Therapeutics Program Tumor Repository. For each lot of cells, the Repository performed Applied Biosystems AmpFLSTR Identifiler testing with PCR amplification to confirm consistency with the published Identifier STR profile for each cell line. Cells were kept in continuous culture for no more than 20 passages. The optimal seeding densities for each of the cell lines at each time point assessed were determined prior to performing the concentration response studies. Briefly, the NCI60 human tumor lines were grown as monolayers in RPMI 1640 medium supplemented with 10% FBS and 2 mmol/L L-glutamine.
An additional 9 lines were from the NCI60 cell line panel including MDA-MB-231 breast carcinoma, MDA-MB-468 breast carcinoma, MCF7 breast carcinoma, Hs578T breast carcinoma, MALME-3M melanoma, SK-MEL-2 melanoma, SK-OV-3 ovarian carcinoma, DU-145 prostate carcinoma, PC-3 prostate carcinoma, all cell lines along with major genetic alterations are listed on Table 2. Pooled donor human umbilical vein endothelial cells (HUVEC, Lonza, cat. CC-2519) and human mesenchymal stem cells (hMSC, Lonza, cat. PT-2501) were purchased from Lonza (Walkersville, MD).
PDMR cell lines were grown in complete medium (DC medium): Dulbecco's modified Eagle's medium (DMEM)/F12 supplemented with 5% fetal bovine serum (FBS), 2 mM L-glutamine, 100 U/mL penicillin and 100 µg/ml streptomycin, 0.4 µg/ml hydrocortisone, 10 ng/ml epidermal growth factor (EGF) recombinant human protein, 24 µg/mL adenine, and 0.1 mg/mL primocin. During culture from frozen stock vials, PDMR cells were cultured in the same medium containing 10 µM Y-27632 (see Table 3). The PDCs were cultured in complete DMEM/F12 media without 10 microM Y-27632 dihydrochloride for at least two passages prior to the screen. The pooled donor HUVEC and hMSC were cultured in endothelial cell growth medium 2 (PromoCell, Heidelberg, Germany, cat. C-22011) and mesenchymal stem cell growth medium 2 (PromoCell, cat. C-28009), respectively. For all experiments, HUVEC and hMSC were used at passages </=5.
[…]

The mark [1] stands for this setting: compound alone, run of 06/01/2021.

In the case of `C=CC(=O)N1CCN(c2nc(=O)n(-c3c(C)ccnc3C(C)C)c3nc(-c4c(O)cccc4F)c(F)cc23)C(C)C1` (stereo not drawn), the viability, T/C (compound 0.0316 µM) is 104% and 107%; the viability, T/C (compound 0.1 µM) was 109% and 108%; the viability, T/C (compound 0.316 µM) was 107% and 109%; the viability, T/C (compound 1 µM) was 112% and 113%; the viability, T/C (compound 3.16 µM) is 90.7% and 103%; the viability, T/C (compound 10 µM) was 44.1% and 48.9%. Further, for the setting “curve of compound”, the IC50 is 8660 nM and 9820 nM.
`C=CCn1c(=O)c2cnc(Nc3ccc(N4CCN(C)CC4)cc3)nc2n1-c1cccc(C(C)(C)O)n1`: the viability, T/C runs as follows: (compound 0.0316 µM) 92.5% and 92.3%; (compound 0.1 µM) 59.8% and 56.2%; (compound 0.316 µM) 23.2% and 29.1%; (compound 1 µM) 18.4% and 24.8%; (compound 3.16 µM) 11.1% and 15.6%; (compound 10 µM) 9.63% and 14.2%. In addition, under “curve of compound”, the IC50 is 136 nM and 129 nM.
As to `CC(=O)c1c(C)c2cnc(Nc3ccc(N4CCNCC4)cn3)nc2n(C2CCCC2)c1=O`, the viability, T/C reads like this: (compound 0.000949 µM) 104% and 89.4%; (compound 0.003 µM) 102% and 98.4%; (compound 0.00949 µM) 99.7% and 96.5%; (compound 0.03 µM) 103% and 93.6%; (compound 0.0949 µM) 99.4% and 97.1%; (compound 0.3 µM) 90.7% and 80.9%. In addition, the IC50 (curve of compound) was above 300 nM.
On to `CC(C)(C)c1cnc(CSc2cnc(NC(=O)C3CCNCC3)s2)o1`, for which the viability, T/C was 110% and 106% (compound 0.00949 µM); 105% and 110% (compound 0.03 µM); 71.5% and 59.3% (compound 0.0949 µM); 12.9% and 9.3% (compound 0.3 µM); 7.58% and 6.45% (compound 0.949 µM); 5.4% and 5.44% (compound 3 µM). The IC50 (curve of compound) is 145 nM and 117 nM.
Consider `CC(C)NCC(C(=O)N1CCN(c2ncnc3c2C(C)CC3O)CC1)c1ccc(Cl)cc1` (stereo not drawn), for which the viability, T/C (compound 0.1 µM) is 81.1% [middle of 13 runs]; the viability, T/C (compound 0.316 µM) was 53.8% [middle of 13 runs]; the viability, T/C (compound 1 µM) is 30.9% [middle of 13 runs]; the viability, T/C (compound 3.16 µM) was 21.7% [middle of 13 runs]; the viability, T/C (compound 10 µM) is 17.5% [middle of 13 runs]. Moreover, the IC50 under setting [1] is 381 nM [middle of 13 runs].
On to `CC(C)n1nc(-c2ccc3oc(N)nc3c2)c2c(N)ncnc21`, for which the viability, T/C is, setting by setting: (compound 0.000316 µM) 78.7% and 94.3%; (compound 0.001 µM) 57.3% and 66.2%; (compound 0.00316 µM) 41.3% and 40.2%; (compound 0.01 µM) 22.9% and 21.7%; (compound 0.0316 µM) 14.4% and 12%; (compound 0.1 µM) 10.8% and 10.1%. Besides, the IC50 (curve of compound) is 1.66 nM and 2.03 nM.
Regarding `CC1(C)CCC(CN2CCN(c3ccc(C(=O)NS(=O)(=O)c4ccc(NCC5CCOCC5)c([N+](=O)[O-])c4)c(Oc4cnc5[nH]ccc5c4)c3)CC2)=C(c2ccc(Cl)cc2)C1`, the viability, T/C (compound 0.0316 µM) is 104%; the viability, T/C (compound 0.1 µM) was 103% and 109%; the viability, T/C (compound 0.316 µM) is 104% and 107%; the viability, T/C (compound 1 µM) was 96.4% and 99.4%; the viability, T/C (compound 3.16 µM) was 69.2% and 76%; the viability, T/C (compound 10 µM) was 10.1% and 10.8%. For the same compound, the IC50 (curve of compound) was 4530 nM and 4990 nM.
In the case of `CCCS(=O)(=O)Nc1ccc(F)c(C(=O)c2c[nH]c3ncc(-c4ccc(Cl)cc4)cc23)c1F`, the viability, T/C by setting is: (compound 0.0316 µM) 112% and 110%; (compound 0.1 µM) 108% and 114%; (compound 0.316 µM) 110% and 116%; (compound 1 µM) 115% and 118%; (compound 3.16 µM) 109% and 113%; (compound 10 µM) 79.7% and 82.9%. In addition, where the note is “curve of compound”, the IC50 was above 10000 nM.
Consider `CCN1CCN(Cc2ccc(Nc3ncc(F)c(-c4cc(F)c5nc(C)n(C(C)C)c5c4)n3)nc2)CC1`, for which the viability, T/C runs as follows: (compound 0.01 µM) 97% [middle of 13 runs]; (compound 0.0316 µM) 94% [middle of 13 runs]; (compound 0.1 µM) 84.7% [middle of 13 runs]; (compound 0.316 µM) 74.7% [middle of 13 runs]; (compound 1 µM) 65.3% [middle of 13 runs]. In addition, under setting [1], the IC50 was above 1000 nM.
As to `COc1c(OCCCN2CCOCC2)ccc2c3n(c(=NC(=O)c4cnc(N)nc4)nc12)CCN3`, the viability, T/C was 78.7% and 83.3% (compound 0.00316 µM); 49.7% and 48.7% (compound 0.01 µM); 27.3% and 28.9% (compound 0.0316 µM); 15.9% and 14.9% (compound 0.1 µM); 10.9% and 10.1% (compound 0.316 µM); 11% and 11.2% (compound 1 µM). Moreover, the concentration for half-maximal inhibition (IC50) (curve of compound) was 9.92 nM and 9.81 nM.
For `Cc1nc(NC(=O)N2CCCC2C(N)=O)sc1-c1ccnc(C(C)(C)C(F)(F)F)c1` (stereo not drawn), the viability, T/C reads like this: (compound 0.0316 µM) 81% and 75.7%; (compound 0.1 µM) 60.6% and 54.3%; (compound 0.316 µM) 39.9% and 37.3%; (compound 1 µM) 29% and 31.4%; (compound 3.16 µM) 21.7% and 20.9%; (compound 10 µM) 8.51% and 8.2%. The IC50 (curve of compound) is 192 nM and 160 nM.
Take `Cn1cnc2c(F)c(Nc3ccc(Br)cc3Cl)c(C(=O)NOCCO)cc21`: the viability, T/C is 84.1% and 81.8% (compound 0.00949 µM); 67.6% and 74.4% (compound 0.03 µM); 60.8% and 66.5% (compound 0.0949 µM); 55.5% and 53.2% (compound 0.3 µM); 48% and 51.1% (compound 0.949 µM); 42.9% and 37.9% (compound 3 µM). Also, the IC50 (curve of compound) was 597 nM and 704 nM.
Consider `Cn1ncc(Cl)c1-c1cc(C(=O)NC(CN)Cc2cccc(F)c2)sc1Cl` (stereo not drawn), for which the viability, T/C was 92.5% and 86.1% (compound 0.0316 µM); 74.3% and 61.8% (compound 0.1 µM); 41.4% and 33.2% (compound 0.316 µM); 27.6% and 23.1% (compound 1 µM); 20.3% and 15.2% (compound 3.16 µM); 1.17% and 1.6% (compound 10 µM). For the setting “curve of compound”, the IC50 is 271 nM and 163 nM.
`Cn1nccc1Nc1nccc(-c2ccn(C(CO)c3ccc(Cl)c(F)c3)c(=O)c2)n1` (stereo not drawn): the viability, T/C (compound 0.0316 µM) was 87.3% and 90%; the viability, T/C (compound 0.1 µM) is 72.5% and 77.1%; the viability, T/C (compound 0.316 µM) was 79% and 73.5%; the viability, T/C (compound 1 µM) was 93.7% and 87.4%; the viability, T/C (compound 3.16 µM) is 112% and 116%; the viability, T/C (compound 10 µM) was 65% and 81.9%. Besides, under “curve of compound”, the IC50 was above 10000 nM.
Turning to `Cn1ncnc1[C@H]1c2n[nH]c(=O)c3cc(F)cc(c23)N[C@@H]1c1ccc(F)cc1`, the viability, T/C was 109% and 101% (compound 0.000316 µM); 105% and 99.7% (compound 0.001 µM); 97.9% and 92.2% (compound 0.00316 µM); 99.3% and 96.5% (compound 0.01 µM); 95.1% and 97.6% (compound 0.0316 µM); 92.9% and 80.5% (compound 0.1 µM). Where the note is “curve of compound”, the IC50 was above 100 nM.
